Source: the NIST ThermoML archive (doi:10.1021/je7005727)
Numbers after ± are expanded uncertainties.

Settings: 101.33 kPa, Liquid; for speed of sound: Sing-around technique in a fixed-path interferometer

Row | mass density (293.15 K) [kg/m3] | speed of sound (293.15 K) [m/s] | mass density (298.15 K) [kg/m3] | speed of sound (298.15 K) [m/s] | mass density (303.15 K) [kg/m3] | speed of sound (303.15 K) [m/s] | Compound
1 | 809.644 ± 0.46 | 1256.7 ± 0.82 | 805.842 ± 0.47 | 1239.2 ± 0.81 | 801.995 ± 0.47 | 1222.7 ± 0.81 | CCCCO [butan-1-ol]
2 | – | 1320.3 ± 1.2 | – | 1303 ± 1.2 | – | 1286.3 ± 1.2 | CCCCCCO [hexan-1-ol]
3 | 814.738 ± 0.76 | 1292.5 ± 1.2 | 811.067 ± 0.77 | 1275.1 ± 1.2 | 807.366 ± 0.78 | 1258.5 ± 1.2 | CCCCCO [pentan-1-ol]
